One experiment has as its target T1, LXRβ (Homo sapiens, UniProt P55055).
T1 sequence (P55055 1-460): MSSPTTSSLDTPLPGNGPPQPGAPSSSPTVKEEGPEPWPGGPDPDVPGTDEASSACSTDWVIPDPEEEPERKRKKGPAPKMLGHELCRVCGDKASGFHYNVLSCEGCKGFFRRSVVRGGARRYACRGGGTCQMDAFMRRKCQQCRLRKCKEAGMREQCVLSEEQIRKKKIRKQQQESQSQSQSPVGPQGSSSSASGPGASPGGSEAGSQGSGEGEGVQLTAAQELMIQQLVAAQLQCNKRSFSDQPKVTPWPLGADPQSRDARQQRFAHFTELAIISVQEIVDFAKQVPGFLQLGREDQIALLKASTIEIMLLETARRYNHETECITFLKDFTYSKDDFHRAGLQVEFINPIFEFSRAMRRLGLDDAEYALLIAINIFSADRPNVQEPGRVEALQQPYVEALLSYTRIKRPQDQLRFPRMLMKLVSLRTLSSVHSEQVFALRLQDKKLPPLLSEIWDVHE
Description: LXR Gal4 reporter transient transfection assay (mammalian two-hybrid, HEK293), LXRβ. Further details: LXRβ (amino acids 156-461); expressed in transfected cells; host or cells: HEK293. Format: cell-based. The following applies: full length (FL) LXRβ, HEK293; read-out: FL-M2H Gal4β. How it is done: LXRα and LXRβ activity status was determined via detection of interaction with coactivator and corepressor proteins in mammalian two-hybrid experiments (M2H). For this, via transient transfection the full length (FL) proteins of LXRα (amino acids 1-447; NP005684; SEQ ID NO:1) or LXRβ-(amino acids 1-461; NP009052; SEQ ID NO:2) or the ligand-binding domains (LBD) of LXRα (amino acids 155-447 SEQ ID NO:3) or LXRβ (amino acids 156-461; SEQ ID NO:4) were expressed from pCMV-AD (Stratagene) as fusions to the transcriptional activation domain of NFkB. As cofactors, domains of either the steroid receptor coactivator 1 (SRC1; amino acids 552-887; SEQ ID NO:5) or of the corepressor NCoR (amino acids 1906-2312; NP006302; SEQ ID NO:6) were expressed as fusions to the DNA binding domain of the yeast transcription factor GAL4 (from pCMV-BD; Stratagene). Interaction was monitored via activation of a coexpressed Firefly Luciferase Reporter gene under control of a promoter containing repetitive GAL4 response elements (vector pFRLuc; Stratagene). Transfection efficiency was controlled via cotransfection of constitutively active pRL-CMV Renilla reniformis luciferase reporter (Promega). HEK293 cells were grown in minimum essential medium (MEM) with 2 mM L-glutamine and Earle's balanced salt solution supplemented with 8.3% fetal bovine serum, 0.1 mM non-essential amino acids, 1 mM sodium pyruvate, at 37° C. in 5% CO2. 3.5×10^4 cells/well were plated in 96-well cell culture plates in growth medium supplemented with 8.3% fetal bovine serum for 16-20 h to ˜90% confluency. For transfection, medium was taken off and LXR and cofactor expressing plasmids as well as the reporter plasmids are added in 30 μL OPTIMEM/well including polyethylene-imine (PEI) as vehicle. Typical amounts of plasmids transfected/well: pCMV-AD-LXR (5 ng), pCMV-BD-cofactor (5 ng), pFR-Luc (100 ng), pRL-CMV (0.5 ng). Compound stocks were prepared in DMSO, prediluted in MEM to a total volume of 120 μL, and added 4 h after addition of the transfection mixture (final vehicle concentration not exceeding 0.2%). Cells were incubated for additional 16 h, lysed for 10 min in 1×Passive Lysis Buffer (Promega) and Firefly and Renilla luciferase activities were measured sequentially in the same cell extract using buffers containing D-luciferine and coelenterazine, respectively. Measurements of luminescence were done in a BMG-luminometer.
The potencies of Compound 21/3 and its analog, Compound pre-6/3, against LXRα and LXRβ were evaluated in biochemical binding assays, cellular mammalian two-hybrid (M2H) interaction assays evaluating nuclear receptor co-repressor (NCOR) recruitment, and cellular reporter assays evaluating transcriptional activity (Table 5).

In experiment [1] the target is T2, GST-LXRβ ligand-binding domain (Homo sapiens, UniProt P55055).
T2 construct: amino acids 156-461; NP009052; made in house; host or cells: E. coli
T2 sequence (P55055 156-460 limits assumed): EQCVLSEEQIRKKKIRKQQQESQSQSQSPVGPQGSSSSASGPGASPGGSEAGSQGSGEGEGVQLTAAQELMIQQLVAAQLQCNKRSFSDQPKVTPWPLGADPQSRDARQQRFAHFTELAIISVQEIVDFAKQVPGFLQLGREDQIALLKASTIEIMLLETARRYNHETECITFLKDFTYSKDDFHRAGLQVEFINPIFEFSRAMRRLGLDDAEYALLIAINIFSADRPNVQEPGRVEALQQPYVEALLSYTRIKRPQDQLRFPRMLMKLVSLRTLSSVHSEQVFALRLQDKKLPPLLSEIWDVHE
The experiment in a line: TR-FRETβ activity assay (NCoA3 coactivator peptide recruitment). Format: biochemical. The settings on record: 1 μM 24(S)-25-epoxycholesterol prestimulation. How it is done:
Recombinant GST-LXRβ ligand-binding domain (LBD; amino acids 156-461; NP009052; SEQ ID NO:4) was expressed in E. coli and purified via gluthatione-sepharose affinity chromatography. N-terminally biotinylated NCoA3 coactivator peptide (SEQ ID NO:7) was chemically synthesized (Eurogentec). Assays were done in 384 well format (final assay volume of 25 μL/well) in a Tris/HCl buffer (pH 6.8) containing KCl, bovine serum albumin, Triton-X-100 and 1 μM 24(S)-25-epoxycholesterol as LXR-prestimulating agonist. Assay buffer was provided and test articles (potential LXR inverse agonists) were titrated to yield final assay concentrations of 50 μM, 16.7 μM, 5.6 μM, 1.9 μM, 0.6 μM, 0.2 μM, 0.07 μM, 0.02 μM, 0.007 μM, 0.002 μM with one vehicle control. Finally, a detection mix was added containing anti GST-Tb cryptate (CisBio; 610SAXLB) and Streptavidin-XL665 (CisBio; 610SAXLB) as fluorescent donor and acceptor, respectively, as well as the coactivator peptide and LXRβ-LBD protein (SEQ ID NO:4). The reaction was mixed thoroughly, equilibrated for 1 h at 4° C. and vicinity of LXRβ and coactivator peptide was detected by measurement of fluorescence in a VictorX4 multiplate reader (PerkinElmer Life Science) using 340 nm as excitation and 615 and 665 nm as emission wavelengths. Assays were performed in triplicates.
240 mM KCl, 1 μg/μL BSA, 0.002% Triton-X-100, […] anti GST-Tb cryptate, 2.5 ng/μL Streptavidin-XL665, coactivator peptide (400 nM), LXRβ protein (530 μg/mL, i.e. 76 nM).

For `Cc1ccc(S(=O)(=O)n2c(-c3cccc(N4[C@@H]5CC[C@H]4C[C@@H](C(=O)O)C5)c3)c(-c3ccsc3C#N)c3cc(F)ccc32)cc1` [3/58], the results for the EC50 (at LXRβ; in experiment [1]) were less than 100 nM and 1000 to 10000 nM, respectively.
The matching figures for `N#Cc1sccc1-c1c(-c2cccc(N3CCC(C(=O)O)CC3)c2)n(S(=O)(=O)c2ccc(C(F)F)cc2)c2ccc(F)cc12` [3/60]: less than 100 nM and 100 to 1000 nM.
The matching figures for `O=C(O)c1ccc(-c2cccc(-c3c(-c4ccccc4C4(F)CNC4)c4cc(F)ccc4n3S(=O)(=O)c3ccc(C(F)F)cc3)c2)c(Cl)c1` [3/61]: 100 to 1000 nM and 100 to 1000 nM.
The matching figures for `CN1CC(F)(c2ccccc2-c2c(-c3cccc(-c4ccc(C(=O)O)cc4Cl)c3)n(S(=O)(=O)c3ccc(C(F)F)cc3)c3ccc(F)cc23)C1` [3/62]: less than 100 nM and 100 to 1000 nM.
Consider `O=C(O)c1ccc(-c2cccc(-c3c(-c4ccsc4C4COC4)c4cc(F)ccc4n3S(=O)(=O)c3ccc(C(F)F)cc3)c2)c(Cl)c1` [3/63], for which the EC50 (at LXRβ; in experiment [1]) was less than 100 nM throughout.
For `Cc1ccc(S(=O)(=O)n2c(-c3cccc(C4CC5(CC(C(=O)O)C5)C4)c3)c(-c3ccsc3C#N)c3cc(F)ccc32)cc1` (stereo not shown) [3/65], the EC50 on LXRβ was less than 100 nM; in experiment [1], 100 to 1000 nM.
The matching figures for `CC1(C)CCN(S(=O)(=O)n2c(-c3cccc(-c4ccc(C(=O)O)cc4)c3)c(-c3ccsc3C#N)c3ccccc32)CC1` [3/66]: 100 to 1000 nM and 1000 to 10000 nM.
The matching figures for `N#Cc1cccc(C#N)c1-c1c(-c2cccc(N3CC(C(=O)O)C3)c2)n(S(=O)(=O)c2ccc(C(F)F)cc2)c2ccc(F)cc12` [3/67]: 100 to 1000 nM and 100 to 1000 nM.
For `N#Cc1cccc(C#N)c1-c1c(-c2cccc(C3CC3C(=O)O)c2)n(S(=O)(=O)c2ccc(C(F)F)cc2)c2ccc(F)cc12` (stereo not shown) [3/68] the same measures were less than 100 nM and 100 to 1000 nM.
For the compound `O=C(O)c1ccc(-c2cccc(-c3c(-c4cccc5oncc45)c4cc(F)ccc4n3S(=O)(=O)c3ccc(C(F)F)cc3)c2)c(Cl)c1` [3/69], the EC50 (at LXRβ; in experiment [1]) was 100 to 1000 nM each time.
Consider `N#Cc1cccc(C#N)c1-c1c(-c2cccc(-c3ccc(C(=O)O)cc3Cl)c2)n(S(=O)(=O)c2ccc(C(F)F)cc2)c2cnc(O)cc12` [3/70], for which the EC50 (at LXRβ; in experiment [1]) was 100 to 1000 nM in each case.
In the case of `N#Cc1cccc(C#N)c1-c1c(-c2cccc(-c3c(F)cc(OCC(=O)O)cc3F)c2)n(S(=O)(=O)c2ccc(C(F)F)cc2)c2ccc(F)cc12` [3/71], the EC50 (at LXRβ; in experiment [1]) was less than 100 nM in each case.
Take `CC(O)(C(=O)O)c1cc(F)c(-c2cccc(-c3c(-c4c(C#N)cccc4C#N)c4cc(F)ccc4n3S(=O)(=O)c3ccc(C(F)F)cc3)c2)c(F)c1` (stereo not shown) [3/72]: the EC50 (at LXRβ; in experiment [1]) was less than 100 nM throughout.
As to `Cc1ccc(S(=O)(=O)n2c(-c3cccc(C4CC4C(=O)O)c3)c(-c3ccsc3C#N)c3ccncc32)cc1` (stereo not shown) [4/1], the results for the EC50 (at LXRβ; in experiment [1]) were less than 100 nM and 1000 to 10000 nM, respectively.
For `Cc1ccc(S(=O)(=O)n2c(-c3cccc(C4CC4C(=O)O)c3)c(-c3ccsc3C#N)c3cccnc32)cc1` (stereo not shown) [4/2] the same measures were 100 to 1000 nM and 1000 to 10000 nM.
As to `Cc1ccc(S(=O)(=O)n2c(-c3cccc(N4CC(C(=O)O)C4)c3)c(-c3ccsc3C#N)c3sccc32)cc1` [4/3], the EC50 was less than 100 nM on LXRβ and 1000 to 10000 nM in experiment [1].
For `Cc1ccc(S(=O)(=O)n2c(-c3cccc(-c4ccc(CO)c(S(=O)(=O)CC(=O)O)c4)c3)c(-c3ccsc3C#N)c3ccccc32)cc1` [5/1] the same measures were 100 to 1000 nM and 100 to 1000 nM.
The matching figures for `Cc1ccc(S(=O)(=O)n2c(-c3cccc(C45CC(C(=O)O)(C4)C5)c3)c(-c3ccsc3C#N)c3ccccc32)cc1` [5/2]: 100 to 1000 nM and 100 to 1000 nM.
On to `Cc1ccc(S(=O)(=O)n2c(-c3cccc(C#CC(C)(C)C(=O)O)c3)c(-c3ccsc3C#N)c3cc(F)ccc32)cc1` [5/4], for which the figures for the EC50 (at LXRβ; in experiment [1]) were less than 100 nM and 1000 to 10000 nM, respectively.
The matching figures for `Cc1ccc(S(=O)(=O)n2c(-c3cccc(-n4ccc(C(=O)O)cc4=O)c3)c(-c3ccsc3C#N)c3cc(F)ccc32)cc1` [5/5]: 100 to 1000 nM and 100 to 1000 nM.
For `Cc1ccc(S(=O)(=O)n2c(-c3ccnc(-c4ccc(C(=O)O)cc4)c3)c(-c3ccsc3C#N)c3cc(F)ccc32)cc1` [5/6] the same measures were less than 100 nM and 100 to 1000 nM.
The matching figures for `N#Cc1sccc1-c1c(-c2cccc(N3CC(C(=O)O)C3)c2)n(S(=O)(=O)c2ccc(Cl)cc2)c2ccc(F)cc12` [5/7]: less than 100 nM and 100 to 1000 nM.
Turning to `COc1ccc(S(=O)(=O)n2c(-c3cccc(N4CC(C(=O)O)C4)c3)c(-c3ccsc3C#N)c3cc(F)ccc32)cn1` [5/8], the EC50 (on LXRβ; in experiment [1]) was 100 to 1000 nM each time.
On to `Cc1ccc(S(=O)(=O)n2c(-c3cccc(N4CC[C@@H](C(=O)O)C[C@H]4C)c3)c(-c3ccsc3C#N)c3cc(F)ccc32)cc1` [5/9], for which the EC50 at LXRβ is less than 100 nM; in experiment [1] it was 100 to 1000 nM.
The matching figures for `O=C(O)c1ccc(-c2cccc(-c3c(-c4ncccc4N4CC(O)C4)c4cc(F)ccc4n3S(=O)(=O)c3ccc(C(F)F)cc3)c2)c(Cl)c1` [5/10]: 100 to 1000 nM and 1000 to 10000 nM.
For `N#Cc1sccc1-c1c(-c2cccc(C3CC3C(=O)NO)c2)n(S(=O)(=O)c2ccc(Cl)cc2)c2ccccc12` (stereo not shown) [6/1] the same measures were less than 100 nM and 100 to 1000 nM.

Source of the values: patent publication US20260083704A1, “LXR MODULATORS WITH BICYCLIC CORE MOIETY FOR TREATING DYSLIPIDEMIAS” (OrsoBio, Inc., priority 2022, published 2026).
